Read-outs that look alike come from different tables or passages of the source.
Target: T1, IKur in human atrial myocytes (Homo sapiens, UniProt P22460)
T1 construct: Human myocytes were isolated from specimens of right atrial appendage obtained from patients; endogenous in cells; host or cells: human atrial myocytes from right atrial appendage of patients undergoing cardiopulmonary bypass
Experiment: Voltage clamp measurement of IKur block (rested state, use-dependent, rate-dependent) in human atrial myocytes
Type: cell-based
Conditions: for inhibition at 0.03 µM / inhibition at 0.1 µM / Use-Dpdnt Ratio / inhibition at 1 µM / Rate-Dpdnt Ratio / inhibition at 0.3 µM: human atria; for Use-Dpdnt Ratio: 10th vs 1st pulse @ 1 Hz, <1 = use-dependent; for selective blockade of IKur (in words): relative to other cardiac K+ channels; for Rate-Dpdnt Ratio: 3 Hz vs 1 Hz, last pulse, <1 = rate-dependent
Source text: B. Measurement of IKur in Human Atrial Myocytes
Isolation of Human Atrial Myocytes:
Human myocytes were isolated from specimens of right atrial appendage obtained from patients undergoing cardiopulmonary bypass, using a modification of the procedure described by Fermini B, Wang Z, Duan D and Nattel S., "Differences in rate dependence of transient outward current in rabbit and human atrium" Am. J. Physiol. […] All tissues were collected in accordance with Temple University School of Medicine Institutional guidelines. […] Tissue samples were quickly immersed in cold (0-4° C.) cardioplegia solution containing (in mM/L): 50 KH2 PO4, 8 MgSO4, 10 NaHCO3, 5 adenosine, 25 taurine, 140 glucose, and 100 mannitol, pH 7.4 and bubbled with 100% O2. […] The tissue was gently agitated by continuous bubbling with 100% O2 for 5 min. […] The supernatant was removed after 40 min and discarded. The chunks were then incubated in a solution of the same ionic composition but supplemented with only collagenase and […]. Microscopic examination of the medium was performed every 10-20 min to determine the number and quality of isolated cells. When the yield appeared maximal, the tissue chunks were suspended in a modified Kraftbruhe solution containing (in mM/L): 25 KCl, 10 KH2 PO4, 25 taurine, 0.5 EGTA, 22 glucose, 55 glutamic acid, and 0.1% bovine albumin, pH 7.3 (22-24° C.) and gently triturated using a large bore Pasteur pipette. The supernatant was collected in a 50 ml centrifuge tube. […] Cells were used within 2-24 hr after isolation.
A small aliquot of the solution containing the isolated human atrial myocytes was placed in a 1-ml chamber mounted on the stage of an inverted microscope. Five minutes were allowed for cell adhesion to the bottom of the chamber. To record IKur, human atrial myocytes were superfused with a solution of the same ionic composition as that used for Kv1.5. An alternative external solution was sometimes used in which NaCl was replaced with NMDG (formal name: N-methyl-d-glucamine) to inhibit INa.
Currents were elicited by 150 ms depolarizing test pulses to +40 mV from a holding potential of -50 mV to inactivate Ito and INa. The amplitude of IKur was measured as the amplitude of the time-dependentcurrent at the end of the test pulse, relative to the holding current level. […] All experiments were performed at room temperature (22-24° C.).
C. Measurement of Use-Dependent and Rate-Dependent Block.
Pulses were applied in 10 second long trains delivered after 30 second rest intervals at frequencies of 1 Hz (10 pulses) or 3 Hz (30 pulses). Percent block of the current is defined as the % decrease in the current amplitude produced by an agent during a given pulse relative to the control current amplitude for that pulse. Rested-state block is the block of the current during the first pulse in a train following the 30 sec rest period. Use-dependent block is block that occurs to a progessively greater extent with each successive depolarization in a train or sequence of pulses or depolarizations delivered at a given rate or frequency. Thus, during a train of 10 depolarizations at frequency of 1 Hz, use-dependent block is assessed as the ratio of the amount of block for the 10th pulse relative to block for the 1st pulse (rested state block) of the train. Rate-dependent block is block that occurs to a greater extent or preferentially at faster rates of depolarization or heart rates. Thus, rate-dependent block is assessed as the ratio of the amount of block of the current during the last pulse of the 10 sec train at 3 Hz vs. 1 Hz. Consequently, ratios of less than one (<1) are indicative of use-dependentand rate-dependent block and the lower the ratio the greater the degree of use and rate dependence.

[1] = 30 nM, 1st pulse @ 1 Hz, +40 mV from -50 mV, read-out: Average % Block, Rested State, 1st pulse
[2] = 30 nM, 10th pulse @ 1 Hz, read-out: Average % Block, Use-Dpdnt, 10th pulse
[3] = 30 nM, 30th pulse @ 3 Hz, read-out: Average % Block, Rate-Dpdnt, 30th pulse
[4] = 100 nM, 1st pulse @ 1 Hz, read-out: Average % Block, Rested State, 1st pulse
[5] = 100 nM, 10th pulse @ 1 Hz, read-out: Average % Block, Use-Dpdnt, 10th pulse
[6] = 100 nM, 30th pulse @ 3 Hz, read-out: Average % Block, Rate-Dpdnt, 30th pulse

T1 sequence (P22460 whole entry): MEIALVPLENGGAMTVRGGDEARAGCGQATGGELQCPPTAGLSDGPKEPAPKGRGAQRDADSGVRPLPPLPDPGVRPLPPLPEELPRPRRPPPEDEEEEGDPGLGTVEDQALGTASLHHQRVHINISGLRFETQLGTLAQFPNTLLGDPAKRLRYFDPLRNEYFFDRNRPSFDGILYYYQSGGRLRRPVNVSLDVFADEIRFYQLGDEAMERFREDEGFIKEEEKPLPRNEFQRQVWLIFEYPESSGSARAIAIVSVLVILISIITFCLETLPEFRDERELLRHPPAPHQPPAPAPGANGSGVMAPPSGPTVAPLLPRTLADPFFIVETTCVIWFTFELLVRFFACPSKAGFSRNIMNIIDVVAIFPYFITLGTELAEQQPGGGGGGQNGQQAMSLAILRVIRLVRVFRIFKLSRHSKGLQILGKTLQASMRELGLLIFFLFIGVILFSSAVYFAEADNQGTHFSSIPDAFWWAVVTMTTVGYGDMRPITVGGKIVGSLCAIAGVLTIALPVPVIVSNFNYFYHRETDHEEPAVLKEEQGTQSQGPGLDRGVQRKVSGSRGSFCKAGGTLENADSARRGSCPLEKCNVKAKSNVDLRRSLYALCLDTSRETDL

inhibition at 0.03 µM [1] | inhibition at 0.03 µM [2] | inhibition at 0.03 µM [3] | inhibition at 0.1 µM [4] | inhibition at 0.1 µM [5] | inhibition at 0.1 µM [6] | use-dependent block of IKur (in words) (human atrial myocytes) | Use-Dpdnt Ratio (100 nM) | selective blockade of IKur (in words) (human atrial myocytes) | Rate-Dpdnt Ratio (100 nM) | SMILES | other results
21.9% | 33% | 48.4% | 35.6% | 59.7% | 75.7% | use-dependentblockade | – | – | – | CC1CCC(C(C)C)C(P(=O)(c2ccccc2)c2ccccc2)C1 (stereo not drawn) [A, (2-Isopropyl-5-methylcyclohexyl)diphenylphosphine oxide] | rate-dependent block of IKur (in words) (human atrial myocytes): strong rate-dependent profile; use-dependent block of IKur (in words) (human atrial myocytes, listed as (2-isopropyl-5-methylcyclohexyl)diphenyl-phosphine oxide): strong use-dependent profile
– | – | – | 61% | 68% | – | use-dependentblockade | 0.90 | selective blockade | – | COc1ccc(-n2nc(Sc3ccc(C)cc3)c(C)c(C#N)c2=O)cc1 [D] | inhibition at 1 µM (1000 nM, 1st pulse @ 1 Hz, read-out: Average % Block, Rested State, 1st pulse): 81.7%; inhibition at 1 µM (1000 nM, 10th pulse @ 1 Hz, read-out: Average % Block, Use-Dpdnt, 10th pulse): 80%; Use-Dpdnt Ratio (1000 nM): 1.02
– | – | – | 10.4% | 17.8% | 11.6% | use-dependentblockade | 0.58 | selective blockade | 1.53 | Cc1cc(C)c(CP(=O)(c2ccccc2)c2ccccc2)c(-c2ccc(F)c(C)c2)c1 [B, 2-(Diphenylphosphinylmethyl)-4'-fluoro-3,5,3'-trimethyl-biphenyl] | inhibition at 0.3 µM (300 nM, 1st pulse @ 1 Hz, read-out: Average % Block, Rested State, 1st pulse): 25.8%; Rate-Dpdnt Ratio (300 nM): 0.93; inhibition at 0.3 µM (300 nM, 10th pulse @ 1 Hz, read-out: Average % Block, Use-Dpdnt, 10th pulse): 31.3%; Use-Dpdnt Ratio (300 nM): 0.82; inhibition at 0.3 µM (300 nM, 30th pulse @ 3 Hz, read-out: Average % Block, Rate-Dpdnt, 30th pulse): 33.8%
35.7% | 43.2% | 42.9% | 63.8% | 67.9% | 60.1% | use-dependentblockade | 0.94 | selective blockade | 1.13 | COc1ccc(-n2nc(Sc3ccc(Cl)cc3)c(C)c(C#N)c2=O)cc1 [C, 6-(4-Chlorophenylthio)-2-(4-methoxyphenyl)-5-methyl-3-oxo-2,3-dihydropyridazine-4-carbonitrile] | Rate-Dpdnt Ratio (30 nM): 1.01; Use-Dpdnt Ratio (30 nM): 0.83; IC50 (first pulse of 10 at 1 Hz, +40 mV from -50 mV, read-out: Rested State IC50, IKur in Human Atrium): 130 nM
